Assay: molar heat capacity at constant pressure
Conditions: 101.33 kPa

CCCCCCCC/C=C/CCCCCCCC(=O)OCC(COC(=O)CCCCCCC/C=C/CCCCCCCC)OC(=O)CCCCCCC/C=C/CCCCCCCC [trielaidin]
molar heat capacity at constant pressure [J/K/mol], Small (less than 1 g) adiabatic calorimetry
Conditions	Crystal	Metastable crystal
8.85 K	–	2.656
9.73 K	–	8.854
10.55 K	–	11.51
11.43 K	–	19.48
12.54 K	–	24.79
13.08 K	–	28.33
14.42 K	–	36.3
14.92 K	–	40.73
16.44 K	–	50.47
16.93 K	–	56.67
18.55 K	–	70.83
18.95 K	–	75.26
20 K	79.69	88.54
20.71 K	–	89.43
21.09 K	–	93.86
22.99 K	–	110.68
23.34 K	–	113.34
25 K	115.11	123.96
25.34 K	–	130.16
25.67 K	–	134.59
27.78 K	–	148.75
28.07 K	–	150.52
30 K	168.23	168.23
30.29 K	–	168.23
30.55 K	–	171.77
31.33 K	–	184.17
31.83 K	–	196.57
33.13 K	–	197.45
33.17 K	–	195.68
35 K	203.65	212.5
35.4 K	–	219.59
37.51 K	–	236.41
39.64 K	–	254.12
40 K	247.92	256.78
41.87 K	–	272.71
44.15 K	–	292.19
45 K	292.19	301.05
46.49 K	–	312.56
48.88 K	–	332.92
50 K	327.61	345.32
51.31 K	–	350.63
53.78 K	–	370.11
55 K	371.88	380.74
56.3 K	–	393.13
58.84 K	–	412.61
60 K	407.3	416.15
61.42 K	–	425.89
65 K	442.72	451.57
66.67 K	–	466.62
69.33 K	–	480.79
70 K	469.28	486.99
72.01 K	–	500.27
74.71 K	–	516.21
75 K	504.7	522.4
77.43 K	–	531.26
80 K	531.26	548.97
80.16 K	–	548.08
82.91 K	–	563.13
85 K	557.82	575.53
85.67 K	–	580.84
88.45 K	–	595.01
90 K	584.39	602.09
91.24 K	–	610.06
94.03 K	–	625.12
95 K	610.95	628.66
96.84 K	–	639.28
99.66 K	–	654.33
100 K	637.51	655.22
100.5 K	–	656.99
103.85 K	–	678.24
105 K	655.22	681.78
106.65 K	–	689.75
109.51 K	–	701.26
110 K	672.93	708.35
112.39 K	–	714.54
115.27 K	–	726.94
118.14 K	–	740.22
120 K	717.2	752.62
121.03 K	–	753.5
123.91 K	–	765.9
126.79 K	–	778.29
129.68 K	–	792.46
130 K	761.47	796.89
132.57 K	–	805.74
135.47 K	–	812.83
138.36 K	–	826.99
140 K	788.03	832.31
141.26 K	–	842.93
144.16 K	–	850.01
147.07 K	–	864.18
149.97 K	–	875.69
150 K	823.45	876.58
152.88 K	–	887.2
155.78 K	–	906.68

Crystal
Conditions	molar heat capacity at constant pressure [J/K/mol]
10.52 K	3.542
11.9 K	8.854
12.76 K	23.91
14.41 K	29.22
16.16 K	44.27
17.98 K	59.32
19.96 K	75.26
22.02 K	93.86
24.22 K	111.56
26.5 K	130.16
28.88 K	149.64
35.94 K	215.16
38.34 K	255
40.46 K	267.4
42.73 K	264.74
45.11 K	290.42
47.47 K	311.67
49.86 K	329.38
52.29 K	347.97
54.77 K	367.45
57.28 K	389.59
59.83 K	409.07
62.4 K	409.96
65.01 K	435.63
67.64 K	457.77
70.3 K	473.71
72.97 K	489.64
75.67 K	503.81
78.39 K	521.52
81.12 K	535.69
83.86 K	550.74
86.62 K	565.79
89.39 K	580.84
92.18 K	595.01
95.56 K	609.18
99.01 K	629.54
104.65 K	654.33
107.48 K	666.73
110.32 K	677.36
113.16 K	689.75
116 K	701.26
118.85 K	713.66
121.7 K	725.17
124.56 K	734.02
127.41 K	742.88
130.27 K	758.82
133.13 K	766.78
135.99 K	775.64
138.85 K	786.26
141.71 K	796
144.57 K	804.86
147.42 K	815.48
150.23 K	826.99
153.02 K	837.62
155.77 K	850.01

Reference: the NIST ThermoML archive (doi:10.1021/je034048e)
